From patent EP0462621A2, “Use of particular compounds for manufacture of pharmaceutical formulations for treatment against various parasites, mycoplasmas, other indications and other infections” (Prendergast, Patrick Thomas, priority 1990, dated 1991)

What was measured:
Type in all cases: cell-based
HIV-I = test: Experiment la(a): macrophage cells, HIV-I, p24 antigen capture radio-immunoassay; details: for TITER: control titer 100000; for wells positive for HIV-I p24, LOG VIRUS DILUTION -1 / wells positive for HIV-I p24, LOG VIRUS DILUTION -2 / wells positive for HIV-I p24, LOG VIRUS DILUTION -3 / wells positive for HIV-I p24, LOG VIRUS DILUTION -4 / wells positive for HIV-I p24, LOG VIRUS DILUTION -5 / wells positive for HIV-I p24, LOG VIRUS DILUTION -6: duplicate runs
Procedure: Fresh macrophage cultures were obtained by incubation of mononuclear cells obtained from a leukopak directly in the wells of a microtiter plate having 6 wells per row. After removal of non-adherent cells, each row of the adherent macrophages was infected with 10-fold serial dilutions of HIV-I, with the use of polybrene to enhance uptake of the virus. After one to two hours, the virus inoculum was removed and replaced with fresh normal growth medium. The fresh medium for each row contained a particular concentration of AZT, dideoxy cytidine (ddC), or compound la, as indicated by the left-hand column of Table la(a). The first row of wells acted as a control, and to it was added fresh medium containing none of the three drugs. Medium levels were maintained for two to four weeks to allow replication of the virus to take place, with at least one complete fluid change to remove residual virus inoculum. The contents of each well were then tested for the level of HIV p24 antigen present using a commercially available antigen capture kit employing a radio-immunoassay which can detect as little as 10'^9gm of p24 present in a sample. The above procedure was done in duplicate runs.
The results were interpreted as follows: 2/2, for example, means that both the corresponding wells of both runs were positive for HIV-I p24, while 0/2 means that neither well was positive. The titers are given in the next to last column; where 1/2 wells was positive, an intermediate value was given to the titer that is half way between the two dilutions when calculated on a logarithmic scale. 3 µM IPA was positive in both wells at a dilution of 1/10,000 and in neither well at 1/100,000. Thus, one half log interval between 10^4 and 10^5 is 10^4.5, or 30,000.

Epstern-Barr Virus (EBV) = test: P3HR1 cells, EBV, immunofluorescence; details: P3HR1 cells in-vitro
Procedure: Experiments were carried out using concentrated P3HR1 […]. […] Infection of Raji cells by infectious EBV induces early antigens (EA) in the cells in proportion to the titer of infectious virus. EA was detected using a monoclonal antibody.
The assay was set up with Raji cells exposed for 2 hours to serial 10 fold dilutions of the P3HR1 virus. Excess virus was separated by centrifugation and removed. Aliquots of cells infected at each dilution were distributed into 12 well trays (0.5 ml/well), and 0.5 ml of medium containing twice the desired final medium concentration was added to each well.
At 24 and 72 hours, aliquots of each well were washed, added to Teflon® outlined wells on a glass slide, air dried to attach then to the glass, and then fixed with acetone-methanol (50:50). Standard immunofluorescence procedures were followed to quantify the percent of cells containing virus at each time, virus dilution and drug concentration.

81-66-45 Cells = test: Cytotoxicity on uninfected 81-66-45 cells, 10 days continuous exposure; details: read-out: ID50 - The concentration of IPA which kills 50% of the cells
Procedure: The "Percent Dead Cells" are taken from Tables la(d) (iii) and la(d) (v) using the 10-day value, and the therapeutic index have been calculated for each drug concentration. The results of IPA are also graphed in Figures 16 and 17. Cytotoxicity (the dashed line) is calculated as the percent live cells.
The availability of toxicity data collected in the same time frame as required for determination of antiviral effectiveness allowed determination of values for two different cell lines. Figures 16 and 17 illustrate the curves obtained by plotting the cytotoxicity of IPA (as a percent of the control cell viability) versus the percent of inhibition of HIV-1 replication (as a percent of the control titer) when H9 and 81-66-45 cells were tested. The cytotoxicity data obtained with 10 days continuous exposure, using uninfected cells, were used since 10 days was the length of time required to carry out the infectivity test. As is apparent from Tables la-(d) (ii) - la(d) (v), toxicity is much lower when the drug is added to cells for one day and then removed, or when cells are exposed for only 1 or 4 days. It is difficult to mimic in-vivo exposure times, particularly if metabolites are more toxic than the parent compound and are readily cleared in-vivo but not in-vitro.

HIV = HIV production from H9 cells persistently infected with HIV, RT activity
Procedure: To examine the effect of IPA on the production of HIV-1 in H9 cells persistently infected with HIV-1, 5x10^6 HIV-1-infected H9 cells were incubated in the absence or presence of IPA. Every 4-5 days, two thirds of the total cells were removed and medium was changed. New medium with or without drug was added to bring up to the original volume. At days indicated, culture supernatant was withdrawn and tested for the production of HIV-1 by the RT activity. A 20,000 cpm or more TCA insoluble radioactivity per millilitre of supernatant was considered positive in the RT assay. Results

CC(C)=CCNc1ncnc2c1ncn2[C@@H]1O[C@H](CO)[C@@H](O)[C@H]1O [IPA, N^6-(Δ^2-isopentenyl) adenosine]
activity at 3 µM (HIV-I; Human immunodeficiency virus 1, Macrophage, drug 3 μM, titer relative to control, read-out: PERCENT OF CONTROL): 30%
activity at 10 µM (HIV-I; Human immunodeficiency virus 1, Macrophage, drug 10 μM, titer relative to control, read-out: PERCENT OF CONTROL): 10%
activity at 30 µM (HIV-I; Human immunodeficiency virus 1, Macrophage, drug 30 μM, titer relative to control, read-out: PERCENT OF CONTROL): 1%
activity at 100 µM (HIV-I; Human immunodeficiency virus 1, Macrophage, drug 100 μM, titer relative to control, read-out: PERCENT OF CONTROL): 0.3%
activity at 300 µM (HIV-I; Human immunodeficiency virus 1, Macrophage, drug 300 μM, titer relative to control, read-out: PERCENT OF CONTROL): 0%
activity at 1000 µM (HIV-I; Human immunodeficiency virus 1, Macrophage, drug 1000 μM, titer relative to control, read-out: PERCENT OF CONTROL): 0%
TITER (HIV-I; drug 3 μM): 30000
wells positive for HIV-I p24, LOG VIRUS DILUTION -1 (HIV-I; drug 3 μM): 2/2
wells positive for HIV-I p24, LOG VIRUS DILUTION -2 (HIV-I; drug 3 μM): 2/2
wells positive for HIV-I p24, LOG VIRUS DILUTION -3 (HIV-I; drug 3 μM): 2/2
wells positive for HIV-I p24, LOG VIRUS DILUTION -4 (HIV-I; drug 3 μM): 2/2
wells positive for HIV-I p24, LOG VIRUS DILUTION -5 (HIV-I; drug 3 μM): 0/2
wells positive for HIV-I p24, LOG VIRUS DILUTION -6 (HIV-I; drug 3 μM): 0/2
TITER (HIV-I; drug 10 μM): 10000
wells positive for HIV-I p24, LOG VIRUS DILUTION -1 (HIV-I; drug 10 μM): 2/2
wells positive for HIV-I p24, LOG VIRUS DILUTION -2 (HIV-I; drug 10 μM): 2/2
wells positive for HIV-I p24, LOG VIRUS DILUTION -3 (HIV-I; drug 10 μM): 2/2
wells positive for HIV-I p24, LOG VIRUS DILUTION -4 (HIV-I; drug 10 μM): 1/2
wells positive for HIV-I p24, LOG VIRUS DILUTION -5 (HIV-I; drug 10 μM): 0/2
wells positive for HIV-I p24, LOG VIRUS DILUTION -6 (HIV-I; drug 10 μM): 0/2
TITER (HIV-I; drug 30 μM): 1000
wells positive for HIV-I p24, LOG VIRUS DILUTION -1 (HIV-I; drug 30 μM): 2/2
wells positive for HIV-I p24, LOG VIRUS DILUTION -2 (HIV-I; drug 30 μM): 2/2
wells positive for HIV-I p24, LOG VIRUS DILUTION -3 (HIV-I; drug 30 μM): 1/2
wells positive for HIV-I p24, LOG VIRUS DILUTION -4 (HIV-I; drug 30 μM): 0/2
wells positive for HIV-I p24, LOG VIRUS DILUTION -5 (HIV-I; drug 30 μM): 0/2
wells positive for HIV-I p24, LOG VIRUS DILUTION -6 (HIV-I; drug 30 μM): 0/2
TITER (HIV-I; drug 100 μM): 300
wells positive for HIV-I p24, LOG VIRUS DILUTION -1 (HIV-I; drug 100 μM): 2/2
wells positive for HIV-I p24, LOG VIRUS DILUTION -2 (HIV-I; drug 100 μM): 2/2
wells positive for HIV-I p24, LOG VIRUS DILUTION -3 (HIV-I; drug 100 μM): 0/2
wells positive for HIV-I p24, LOG VIRUS DILUTION -4 (HIV-I; drug 100 μM): 0/2
wells positive for HIV-I p24, LOG VIRUS DILUTION -5 (HIV-I; drug 100 μM): 0/2
wells positive for HIV-I p24, LOG VIRUS DILUTION -6 (HIV-I; drug 100 μM): 0/2
TITER (HIV-I; drug 300 μM): 10
wells positive for HIV-I p24, LOG VIRUS DILUTION -1 (HIV-I; drug 300 μM): 0/2
wells positive for HIV-I p24, LOG VIRUS DILUTION -2 (HIV-I; drug 300 μM): 0/2
wells positive for HIV-I p24, LOG VIRUS DILUTION -3 (HIV-I; drug 300 μM): 0/2
wells positive for HIV-I p24, LOG VIRUS DILUTION -4 (HIV-I; drug 300 μM): 0/2
wells positive for HIV-I p24, LOG VIRUS DILUTION -5 (HIV-I; drug 300 μM): 0/2
wells positive for HIV-I p24, LOG VIRUS DILUTION -6 (HIV-I; drug 300 μM): 0/2
TITER (HIV-I; drug 1000 μM): 10
wells positive for HIV-I p24, LOG VIRUS DILUTION -1 (HIV-I; drug 1000 μM): 0/2
wells positive for HIV-I p24, LOG VIRUS DILUTION -2 (HIV-I; drug 1000 μM): 0/2
wells positive for HIV-I p24, LOG VIRUS DILUTION -3 (HIV-I; drug 1000 μM): 0/2
wells positive for HIV-I p24, LOG VIRUS DILUTION -4 (HIV-I; drug 1000 μM): 0/2
wells positive for HIV-I p24, LOG VIRUS DILUTION -5 (HIV-I; drug 1000 μM): 0/2
wells positive for HIV-I p24, LOG VIRUS DILUTION -6 (HIV-I; drug 1000 μM): 0/2
levels of Epstern-Barr Virus (EBV) (Epstern-Barr Virus (EBV)): reduces
CC50 (81-66-45 Cells): 40 µM
HIV PRODUCTION RT ACTIVITY cpm/ml (HIV; DRUG CONCENTRATION 3.75 (unit not given), 15 DAYS p.d., without drug 3 x 10^5): 2.3 x 10^5 cpm/ml
HIV PRODUCTION RT ACTIVITY cpm/ml (HIV; DRUG CONCENTRATION 3.75 (unit not given), 25 DAYS p.d., without drug 1.1 x 10^6): 1.2 x 10^5 cpm/ml
HIV PRODUCTION RT ACTIVITY cpm/ml (HIV; DRUG CONCENTRATION 7.5 (unit not given), 15 DAYS p.d., without drug 3 x 10^5): 2.9 x 10^5 cpm/ml
HIV PRODUCTION RT ACTIVITY cpm/ml (HIV; DRUG CONCENTRATION 7.5 (unit not given), 25 DAYS p.d., without drug 1.1 x 10^6): 3.2 x 10^5 cpm/ml
HIV PRODUCTION RT ACTIVITY cpm/ml (HIV; DRUG CONCENTRATION 15 (unit not given), 15 DAYS p.d., without drug 3 x 10^5): 2.3 x 10^5 cpm/ml
HIV PRODUCTION RT ACTIVITY cpm/ml (HIV; DRUG CONCENTRATION 15 (unit not given), 25 DAYS p.d., without drug 1.1 x 10^6): 3.6 x 10^5 cpm/ml
HIV PRODUCTION RT ACTIVITY cpm/ml (HIV; DRUG CONCENTRATION 30 (unit not given), 15 DAYS p.d., without drug 3 x 10^5): 2.9 x 10^5 cpm/ml
HIV PRODUCTION RT ACTIVITY cpm/ml (HIV; DRUG CONCENTRATION 30 (unit not given), 25 DAYS p.d., without drug 1.1 x 10^6): 2.5 x 10^5 cpm/ml
